Laboratory results reported in US10414740B2, “Glutaminase inhibitors and method of use” (Agios Pharmaceuticals, Inc., priority 2012, dated 2019).

These compounds were tested against T1, glutaminase (GAC) (Homo sapiens, UniProt O94925) (assay: glutaminase coupled endpoint assay (Example A)). Settings: inhibition of glutaminase; IC50 tested in an assay of Example A or Example B.
T1 sequence (O94925 55-598 isoform O94925-3 limits assumed): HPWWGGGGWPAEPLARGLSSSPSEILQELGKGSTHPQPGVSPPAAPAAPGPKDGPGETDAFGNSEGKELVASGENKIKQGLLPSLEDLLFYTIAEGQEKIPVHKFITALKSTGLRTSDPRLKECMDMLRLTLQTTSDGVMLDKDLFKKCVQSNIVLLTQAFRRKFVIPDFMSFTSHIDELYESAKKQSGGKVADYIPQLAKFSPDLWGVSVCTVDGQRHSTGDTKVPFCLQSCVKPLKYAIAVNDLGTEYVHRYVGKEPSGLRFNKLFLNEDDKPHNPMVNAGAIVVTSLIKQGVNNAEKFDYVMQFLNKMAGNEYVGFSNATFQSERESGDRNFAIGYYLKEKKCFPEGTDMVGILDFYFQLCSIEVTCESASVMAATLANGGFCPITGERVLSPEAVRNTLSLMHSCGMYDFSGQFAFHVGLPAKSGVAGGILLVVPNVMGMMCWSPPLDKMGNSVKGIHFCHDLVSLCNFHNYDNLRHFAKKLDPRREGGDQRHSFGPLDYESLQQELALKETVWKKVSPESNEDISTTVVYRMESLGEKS
Type: biochemical
Method: In this example, the enzymatic activity of glutaminase is measured through a coupled endpoint assay. […] The glutamate produced is converted to 2-OG by a kinetic excess of glutamate dehydrogenase. […] However, a kinetic excess of the third coupling enzyme, diaphorase, recycles NAD from NADH to keep the NAD concentration constant during the timecourse of the assay. Diaphorase, also supplied in kinetic excess, oxidizes NADH produced by GDH back to NAD with the concomitant reduction of rezasurin to the highly fluorescent resorufin. […] A reduction in the signal indicates inhibition of some component of the coupled enzyme system. Prospective hits are counterscreened against GDH/diaphorase alone to remove hits to the coupling enzyme system in a second assay.
2. […] Add 1 μl a compound in 100% DMSO 2. Add 40 μl of Enzyme Mix and incubate for 60 minute at room temperature 3. Add 10 μl of Substrate Mix to start reaction 4.
Compound O=C(Cc1ccc(Cl)nc1)Nc1nnc(CCCCc2nnc(NC(=O)Cc3ccc(Cl)nc3)s2)s1 [Compound 78, N,N′-(5,5′-(butane-1,4-diyl)bis(1,3,4-thiadiazole-5,2-diyl))bis(2-(6-chloropyridin-3-yl)acetamide)] has an IC50 of 500 to 1000 nM.
CC(C)c1ccc(OCC(=O)Nc2nnc(CCCCc3nnc(NC(=O)COc4ccc(C(C)C)cc4)s3)s2)cc1 [Compound 79] was tested, and the IC50 was 1000 to 10000 nM.
O=C(CCCC1CCCCC1)Nc1nnc(CCCCc2nnc(NC(=O)CCCC3CCCCC3)s2)s1 [Compound 80, N,N′-(5,5′-(butane-1,4-diyl)bis(1,3,4-thiadiazole-5,2-diyl))bis(4-cyclohexylbutanamide)] was tested, and the IC50 was 500 to 1000 nM.
In the case of O=C(C/C=C/c1ccccc1)Nc1nnc(CCCCc2nnc(NC(=O)C/C=C/c3ccccc3)s2)s1 [Compound 81, (3E,3′E)-N,N′-(5,5′-(butane-1,4-diyl)bis(1,3,4-thiadiazole-5,2-diyl))bis(4-phenylbut-3-enamide)], the IC50 is reported as 100 to 500 nM.
For O=C(CCCc1ccccc1)Nc1nnc(CCCCc2nnc(NC(=O)CCCc3ccccc3)s2)s1 [Compound 82, N,N′-(5,5′-(butane-1,4-diyl)bis(1,3,4-thiadiazole-5,2-diyl))bis(4-phenylbutanamide)], the IC50 was 100 to 500 nM.
With O=C(Cc1ccc(F)c(F)c1)Nc1nnc(CCCCc2nnc(NC(=O)Cc3ccc(F)c(F)c3)s2)s1 [Compound 83, N,N′-(5,5′-(butane-1,4-diyl)bis(1,3,4-thiadiazole-5,2-diyl))bis(2-(3,4-difluorophenyl)acetamide)] the IC50 was < 100 nM.
For O=C(Nc1nnc(CCCCc2nnc(NC(=O)C3(c4ccccc4)CC3)s2)s1)C1(c2ccccc2)CC1 [Compound 84], the IC50 was 1000 to 10000 nM.
O=C(Nc1nnc(CCCCc2nnc(NC(=O)c3cccc4ccccc34)s2)s1)c1cccc2ccccc12 [Compound 85, N,N′-(5,5′-(butane-1,4-diyl)bis(1,3,4-thiadiazole-5,2-diyl))di-1-naphthamide] showed an IC50 of 100 to 500 nM.
O=C(Cc1c[nH]c2ccccc12)Nc1nnc(CCCCc2nnc(NC(=O)Cc3c[nH]c4ccccc34)s2)s1 [Compound 87, N,N′-(5,5′-(butane-1,4-diyl)bis(1,3,4-thiadiazole-5,2-diyl))bis(2-(1H-indol-3-yl)acetamide)] was tested, and the IC50 was < 100 nM.
CC(C)(C(=O)Nc1nnc(CCCCc2nnc(NC(=O)C(C)(C)c3ccccc3)s2)s1)c1ccccc1 [Compound 88, N,N′-(5,5′-(butane-1,4-diyl)bis(1,3,4-thiadiazole-5,2-diyl))bis(2-methyl-2-phenylpropanamide)] was tested, and the IC50 was 500 to 1000 nM.
With O=C(CC1NC(=O)NC1=O)Nc1nnc(CCCCc2nnc(NC(=O)CC3NC(=O)NC3=O)s2)s1 (centres unmarked) [Compound 89, N,N′-(5,5′-(butane-1,4-diyl)bis(1,3,4-thiadiazole-5,2-diyl))bis(2-(2,5-dioxoimidazolidin-4-yl)acetamide)] the IC50 was 100 to 500 nM.
For O=C(Nc1nnc(CCCCc2nnc(NC(=O)C3CCCCC3)s2)s1)C1CCCCC1 [Compound 90, N,N′-(5,5′-(butane-1,4-diyl)bis(1,3,4-thiadiazole-5,2-diyl))dicyclohexanecarboxamide], the IC50 was 100 to 500 nM.
O=C(CCc1ccccc1Cl)Nc1nnc(CCCCc2nnc(NC(=O)CCc3ccccc3Cl)s2)s1 [Compound 91, N,N′-(5,5′-(butane-1,4-diyl)bis(1,3,4-thiadiazole-5,2-diyl))bis(3-(2-chlorophenyl)propanamide)] gave an IC50 of 100 to 500 nM.
O=C(Cc1cccc(C(F)(F)F)c1F)Nc1nnc(CCCCc2nnc(NC(=O)Cc3cccc(C(F)(F)F)c3F)s2)s1 [Compound 92] gave an IC50 of 1000 to 10000 nM.
Compound O=C(CC1OC(=O)c2ccccc21)Nc1nnc(CCCCc2nnc(NC(=O)CC3OC(=O)c4ccccc43)s2)s1 (centres unmarked) [Compound 93, N,N′-(5,5′-(butane-1,4-diyl)bis(1,3,4-thiadiazole-5,2-diyl))bis(2-(3-oxo-1,3-dihydroisobenzofuran-1-yl)acetamide)] has an IC50 of 100 to 500 nM.
CC(=O)Nc1nnc(CCCCc2nnc(NC(C)=O)s2)s1 [Compound 94, N,N′-(5,5′-(butane-1,4-diyl)bis(1,3,4-thiadiazole-5,2-diyl))diacetamide] gave an IC50 of 500 to 1000 nM.
O=C(Nc1nnc(CCCCc2nnc(NC(=O)C3CCCC3)s2)s1)C1CCCC1 [Compound 95, N,N′-(5,5′-(butane-1,4-diyl)bis(1,3,4-thiadiazole-5,2-diyl))dicyclopentanecarboxamide] gave an IC50 of 500 to 1000 nM.
Compound CC(C)(C)CC(=O)Nc1nnc(CCCCc2nnc(NC(=O)CC(C)(C)C)s2)s1 [Compound 96] has an IC50 of 1000 to 10000 nM.
Compound CN(C(=O)Cc1ccccc1)c1nnc(CCCCc2nnc(N(C)C(=O)Cc3ccccc3)s2)s1 [Compound 97] has an IC50 of 1000 to 10000 nM.
With CC(=O)Nc1nnc(CCCCc2nnc(NC(=O)Cc3ccccc3)s2)s1 [Compound 98] the IC50 was 100 to 500 nM.
In the case of O=C(Cc1ccccc1)Nc1cc(CCCCc2cc(NC(=O)Cc3ccccc3)on2)no1 [Compound 99], the IC50 is reported as 1000 to 10000 nM.
O=C(NCc1ccccc1)c1nnc(CCCCc2nnc(C(=O)NCc3ccccc3)s2)s1 [Compound 100] gave an IC50 of 100 to 500 nM.
Compound COc1cc(CCC(=O)Nc2nnc(CCCCc3nnc(NC(=O)CCc4cc(OC)c(OC)c(OC)c4)s3)s2)cc(OC)c1OC [Compound 101, N,N′-(5,5′-(butane-1,4-diyl)bis(1,3,4-thiadiazole-5,2-diyl))bis(3-(3,4,5-trimethoxyphenyl)propanamide)] has an IC50 of 500 to 1000 nM.
In the case of O=C(Nc1nnc(CCCCc2nnc(NC(=O)C3CCC3)s2)s1)C1CCC1 [Compound 102, N,N′-(5,5′-(butane-1,4-diyl)bis(1,3,4-thiadiazole-5,2-diyl))dicyclobutanecarboxamide], the IC50 is reported as 500 to 1000 nM.
O=C(CNC(=O)c1ccccc1)Nc1nnc(CCCCc2nnc(NC(=O)CNC(=O)c3ccccc3)s2)s1 [Compound 103, N,N′-(2,2′-(5,5′-(butane-1,4-diyl)bis(1,3,4-thiadiazole-5,2-diyl))bis(azanediyl)bis(2-oxoethane-2,1-diyl))dibenzamide] showed an IC50 of 500 to 1000 nM.
With Cc1cccc(OCC(=O)Nc2nnc(CCCCc3nnc(NC(=O)COc4cccc(C)c4)s3)s2)c1 [Compound 104] the IC50 was 1000 to 10000 nM.
In the case of O=C(Nc1nnc(CCCCc2nnc(NC(=O)C3CC3)s2)s1)C1CC1 [Compound 105], the IC50 is reported as 1000 to 10000 nM.
For COc1cccc(CCC(=O)Nc2nnc(CCCCc3nnc(NC(=O)CCc4cccc(OC)c4OC)s3)s2)c1OC [Compound 106, N,N′-(5,5′-(butane-1,4-diyl)bis(1,3,4-thiadiazole-5,2-diyl))bis(3-(2,3-dimethoxyphenyl)propanamide)], the IC50 was 100 to 500 nM.
For CN(C)c1ccc(CC(=O)Nc2nnc(CCCCc3nnc(NC(=O)Cc4ccc(N(C)C)cc4)s3)s2)cc1 [Compound 107, N,N′-(5,5′-(butane-1,4-diyl)bis(1,3,4-thiadiazole-5,2-diyl))bis(2-(4-(dimethylamino)phenyl)acetamide)], the IC50 was 100 to 500 nM.
O=C(Cc1ccccn1)Nc1nnc(CCC(O)CCc2nnc(NC(=O)Cc3ccccn3)s2)s1 [Compound 108] showed an IC50 of 1000 to 10000 nM.
CC(C)(Oc1ccc(Cl)cc1)C(=O)Nc1nnc(CCCCc2nnc(NC(=O)C(C)(C)Oc3ccc(Cl)cc3)s2)s1 [Compound 109] was tested, and the IC50 was 1000 to 10000 nM.
CC(CC(=O)Nc1nnc(CCCCc2nnc(NC(=O)CC(C)c3ccccc3)s2)s1)c1ccccc1 (centres unmarked) [Compound 110] was tested, and the IC50 was 1000 to 10000 nM.
O=C(CCOc1ccccc1)Nc1nnc(CCCCc2nnc(NC(=O)CCOc3ccccc3)s2)s1 [Compound 111, N,N′-(5,5′-(butane-1,4-diyl)bis(1,3,4-thiadiazole-5,2-diyl))bis(3-phenoxypropanamide)] gave an IC50 of 100 to 500 nM.
In the case of O=C(CCC(=O)c1ccccc1)Nc1nnc(CCCCc2nnc(NC(=O)CCC(=O)c3ccccc3)s2)s1 [Compound 112, N,N′-(5,5′-(butane-1,4-diyl)bis(1,3,4-thiadiazole-5,2-diyl))bis(4-oxo-4-phenylbutanamide)], the IC50 is reported as 100 to 500 nM.
Compound O=C(Cc1ccc(Cl)cc1)Nc1nnc(CCCCc2nnc(NC(=O)Cc3ccc(Cl)cc3)s2)s1 [Compound 113, N,N′-(5,5′-(butane-1,4-diyl)bis(1,3,4-thiadiazole-5,2-diyl))bis(2-(4-chlorophenyl)acetamide)] has an IC50 of 100 to 500 nM.
For Cc1ccccc1CC(=O)Nc1nnc(CCCCc2nnc(NC(=O)Cc3ccccc3C)s2)s1 [Compound 114, N,N′-(5,5′-(butane-1,4-diyl)bis(1,3,4-thiadiazole-5,2-diyl))bis(2-o-tolylacetamide)], the IC50 was 100 to 500 nM.
With CC(C)CC(=O)Nc1nnc(CCCCc2nnc(NC(=O)CC(C)C)s2)s1 [Compound 115, N,N′-(5,5′-(butane-1,4-diyl)bis(1,3,4-thiadiazole-5,2-diyl))bis(3-methylbutanamide)] the IC50 was 500 to 1000 nM.
For Cc1[nH]c2ccccc2c1CC(=O)Nc1nnc(CCCCc2nnc(NC(=O)Cc3c(C)[nH]c4ccccc34)s2)s1 [Compound 116, N,N′-(5,5′-(butane-1,4-diyl)bis(1,3,4-thiadiazole-5,2-diyl))bis(2-(2-methyl-1H-indol-3-yl)acetamide)], the IC50 was < 100 nM.
